Key:
[1] = system: Monochoria vaginalis (Burm. f.) Presl var. plantaginea (Roxb.) Solms-Laub.; assay: Test 1 paddy pot herbicidal effect, water surface application; format: in vivo; conditions: applied day after sowing, evaluated 28 days later
Text: (§1) Standard of herbicidal effect (level of suppression of development and growth) […] Herbicidal effect of 90% or more, injury to paddy rice […] Herbicidal effect of 70% or more to less than 90%, injury to paddy rice […] 2: […]

[2] = system: Echinochloa oryzicola vasing.; assay: as above; format: in vivo; conditions: applied day after sowing, evaluated 28 days later
Text: as §1

[3] = system: Monochoria vaginalis (Burm. f.) Presl var. plantaginea (Roxb.) Solms-Laub.; assay: Test 2 paddy pot herbicidal effect with water drainage and feeding; format: in vivo; conditions: water drainage and feeding 2 cm per day for two days, 28th day
Protocol: (§2) Further, a tuber of Sagittaria pygmaea Miq. was buried. […] For two days starting from the next day, water drainage and feeding each of 2 cm in depth per day were conducted.

Sagittaria pygmaea Miq. = assay: as above; format: in vivo; conditions: water drainage and feeding 2 cm per day for two days, 28th day
Protocol: as §2

[4] = system: Echinochloa oryzicola vasing.; assay: Test 3 herbicidal effect, application before germination or at 3-leaf stage; conditions: 28th day from application

SMILES | Herbicidal effect Mo ([1]; 0.4 g/10 ares) | Herbicidal effect Mo ([1]; 1.6 g/10 ares) | Herbicidal effect Mo ([1]; 6.3 g/10 ares) | Herbicidal effect Mo ([1]; 25.0 g/10 ares) | Herbicidal effect Ec ([2]; 0.4 g/10 ares) | Herbicidal effect Ec ([2]; 1.6 g/10 ares) | Herbicidal effect Ec ([2]; 6.3 g/10 ares) | Herbicidal effect Ec ([2]; 25.0 g/10 ares) | Herbicidal effect (Ec) Application at 3-leaf stage ([4]; 0.3 g/10 ares) | Herbicidal effect (Ec) Application before germination ([4]; 0.3 g/10 ares) | Herbicidal effect (Ec) Application at 3-leaf stage ([4]; 0.6 g/10 ares) | Herbicidal effect (Ec) Application before germination ([4]; 0.6 g/10 ares) | Herbicidal effect (Ec) Application at 3-leaf stage ([4]; 1.3 g/10 ares) | Herbicidal effect (Ec) Application before germination ([4]; 1.3 g/10 ares) | Herbicidal effect (Ec) Application at 3-leaf stage ([4]; 2.5 g/10 ares) | Herbicidal effect (Ec) Application before germination ([4]; 2.5 g/10 ares) | Herbicidal effect (Ec) Application at 3-leaf stage ([4]; 5.0 g/10 ares) | Herbicidal effect (Ec) Application before germination ([4]; 5.0 g/10 ares) | also measured
COc1cc(OC)nc(C(O)c2ccccc2NS(=O)(=O)C(F)F)n1 (centres unmarked) [Example 1, 2-[(4,6-dimethoxypyrimidine-2-yl)hydroxymethyl]-N-difluoromethanesulfonyl anilide] | 5 (Herbicidal effect of 90% or more, injury to paddy rice) | 5 (Herbicidal effect of 90% or more, injury to paddy rice) | 5 (Herbicidal effect of 90% or more, injury to paddy rice) | 5 (Herbicidal effect of 90% or more, injury to paddy rice) | 1 (Herbicidal effect of 10% or more to less than 30%, injury to paddy rice) | 3 (Herbicidal effect of 50% or more to less than 70%, injury to paddy rice) | 4 (Herbicidal effect of 70% or more to less than 90%, injury to paddy rice) | 5 (Herbicidal effect of 90% or more, injury to paddy rice) | 0 (Herbicidal effect of less than 10%, injury to paddy rice) | 1 (Herbicidal effect of 10% or more to less than 30%, injury to paddy rice) | 1 (Herbicidal effect of 10% or more to less than 30%, injury to paddy rice) | 2 (Herbicidal effect of 30% or more to less than 50%, injury to paddy rice) | 2 (Herbicidal effect of 30% or more to less than 50%, injury to paddy rice) | 3 (Herbicidal effect of 50% or more to less than 70%, injury to paddy rice) | 4 (Herbicidal effect of 70% or more to less than 90%, injury to paddy rice) | 5 (Herbicidal effect of 90% or more, injury to paddy rice) | 5 (Herbicidal effect of 90% or more, injury to paddy rice) | 5 (Herbicidal effect of 90% or more, injury to paddy rice) | Herbicidal effect Ec ([3]; 0.6 g/10 ares): 2 (Herbicidal effect of 30% or more to less than 50%, injury to paddy rice); Herbicidal effect Ec ([3]; 1.3 g/10 ares): 4 (Herbicidal effect of 70% or more to less than 90%, injury to paddy rice); Herbicidal effect Ec ([3]; 2.5 g/10 ares): 5 (Herbicidal effect of 90% or more, injury to paddy rice); Herbicidal effect Ec ([3]; 5.0 g/10 ares): 5 (Herbicidal effect of 90% or more, injury to paddy rice); Herbicidal effect Sc (Sagittaria pygmaea Miq.; 0.6 g/10 ares): 2 (Herbicidal effect of 30% or more to less than 50%, injury to paddy rice); Herbicidal effect Sc (Sagittaria pygmaea Miq.; 1.3 g/10 ares): 5 (Herbicidal effect of 90% or more, injury to paddy rice); Herbicidal effect Sc (Sagittaria pygmaea Miq.; 2.5 g/10 ares): 5 (Herbicidal effect of 90% or more, injury to paddy rice); Herbicidal effect Sc (Sagittaria pygmaea Miq.; 5.0 g/10 ares): 5 (Herbicidal effect of 90% or more, injury to paddy rice)
COCc1cccc(C(O)c2nc(OC)cc(OC)n2)c1NS(=O)(=O)C(F)F (centres unmarked) [Example 2, 2-[(4,6-dimethoxypyrimidine-2-yl)hydroxymethyl]-6-methoxymethyl-N-difluoromethanesulfonyl anilide] | 5 (Herbicidal effect of 90% or more, injury to paddy rice) | 5 (Herbicidal effect of 90% or more, injury to paddy rice) | 5 (Herbicidal effect of 90% or more, injury to paddy rice) | 5 (Herbicidal effect of 90% or more, injury to paddy rice) | 4 (Herbicidal effect of 70% or more to less than 90%, injury to paddy rice) | 5 (Herbicidal effect of 90% or more, injury to paddy rice) | 5 (Herbicidal effect of 90% or more, injury to paddy rice) | 5 (Herbicidal effect of 90% or more, injury to paddy rice) | 3 (Herbicidal effect of 50% or more to less than 70%, injury to paddy rice) | 4 (Herbicidal effect of 70% or more to less than 90%, injury to paddy rice) | 4 (Herbicidal effect of 70% or more to less than 90%, injury to paddy rice) | 5 (Herbicidal effect of 90% or more, injury to paddy rice) | 5 (Herbicidal effect of 90% or more, injury to paddy rice) | 5 (Herbicidal effect of 90% or more, injury to paddy rice) | 5 (Herbicidal effect of 90% or more, injury to paddy rice) | 5 (Herbicidal effect of 90% or more, injury to paddy rice) | 5 (Herbicidal effect of 90% or more, injury to paddy rice) | 5 (Herbicidal effect of 90% or more, injury to paddy rice) | 
CCc1cccc(C(O)c2nc(OC)cc(OC)n2)c1NS(=O)(=O)C(F)F (centres unmarked) [Example 3, 2-[(4,6-dimethoxypyrimidine-2-yl)hydroxymethyl]-6-ethyl-N-difluoromethanesulfonyl anilide] | 5 (Herbicidal effect of 90% or more, injury to paddy rice) | 5 (Herbicidal effect of 90% or more, injury to paddy rice) | 5 (Herbicidal effect of 90% or more, injury to paddy rice) | 5 (Herbicidal effect of 90% or more, injury to paddy rice) | 4 (Herbicidal effect of 70% or more to less than 90%, injury to paddy rice) | 5 (Herbicidal effect of 90% or more, injury to paddy rice) | 5 (Herbicidal effect of 90% or more, injury to paddy rice) | 5 (Herbicidal effect of 90% or more, injury to paddy rice) | 2 (Herbicidal effect of 30% or more to less than 50%, injury to paddy rice) | 4 (Herbicidal effect of 70% or more to less than 90%, injury to paddy rice) | 4 (Herbicidal effect of 70% or more to less than 90%, injury to paddy rice) | 5 (Herbicidal effect of 90% or more, injury to paddy rice) | 5 (Herbicidal effect of 90% or more, injury to paddy rice) | 5 (Herbicidal effect of 90% or more, injury to paddy rice) | 5 (Herbicidal effect of 90% or more, injury to paddy rice) | 5 (Herbicidal effect of 90% or more, injury to paddy rice) | 5 (Herbicidal effect of 90% or more, injury to paddy rice) | 5 (Herbicidal effect of 90% or more, injury to paddy rice) | 

From US6458748B1, “Di- or tri-fluoromethanesulfonyl anilide derivatives, process for the preparation of them and herbicides containing them as the active ingredient” (Ihara Chemical Industry Co., Ltd., priority 1998, dated 2002)
